Patent US20080085893A1, “MATRIX METALLOPROTEASE INHIBITORS” (priority 2006, published 2008)
“And” between values parts separate entries of the source, which are not always exact repeats. Identical values can stand only once.

Legend:
[1] = target: T1, human MMP-2 (amino acids 1-660) (Homo sapiens, UniProt P08253); experiment: MMP dose response assay for determining IC50, MMP-2; assay type: biochemical; settings: for IC50: recombinant enzyme, fluorescent-quench substrate 100 nM, read-out: MMP-2; for inhibition at 10 µM: read-out: MMP-2 % inhibition at 10 μM
T1 construct: human MMP-2 (amino acids 1-660); made in house
T1 sequence (P08253 110-660): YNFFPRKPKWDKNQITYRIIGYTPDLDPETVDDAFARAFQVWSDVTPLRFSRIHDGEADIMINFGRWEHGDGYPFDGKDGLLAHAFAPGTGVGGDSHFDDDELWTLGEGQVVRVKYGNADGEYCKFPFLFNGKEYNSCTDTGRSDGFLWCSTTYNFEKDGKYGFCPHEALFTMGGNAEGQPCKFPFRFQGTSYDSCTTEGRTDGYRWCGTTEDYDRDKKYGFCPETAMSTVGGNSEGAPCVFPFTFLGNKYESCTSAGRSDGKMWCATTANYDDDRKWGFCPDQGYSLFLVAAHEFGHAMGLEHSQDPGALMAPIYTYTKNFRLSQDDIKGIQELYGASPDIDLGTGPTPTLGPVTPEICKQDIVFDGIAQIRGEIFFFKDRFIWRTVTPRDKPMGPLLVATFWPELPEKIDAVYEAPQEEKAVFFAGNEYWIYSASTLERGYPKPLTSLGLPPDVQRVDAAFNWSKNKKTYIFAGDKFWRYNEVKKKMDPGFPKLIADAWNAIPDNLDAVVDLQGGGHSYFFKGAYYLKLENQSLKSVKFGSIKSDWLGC
Protocol: (§1) MMP Dose Response Assay for Determining IC50
(§2) The following method was used for determining IC50 values of different inhibitor compounds against multiple MMP enzymes. Frozen stocks of recombinantly produced MMPs were prepared in assay buffer (50 mM HEPES pH 7.4, 10 mM CaCl2, 0.05% Brij-35). […] Enzyme concentrations in the assay were determined empirically and set such that proteolytic activity was maintained in a linear range over the time-course of the experiment. […] Each concentration for each test compound was tested in triplicate. MMP enzymes were equilibrated with compounds for 1 hour at room temperature, then a fluorescent-quench substrate (Acetyl-Cys(Eu)-Pro-Leu-Gly-Leu-Lys-(QSY7)-Ala-Arg-amide) was added to a final concentration of 100 nM. […] Data was analyzed by first calculating average background value from wells that contained only substrate, and this value was subtracted from the entire plate. The 100%, or maximum value, was determined by averaging control wells that contained enzyme, substrate and DMSO. For each well, the percent of control was calculated by dividing the well value by the average DMSO value obtained above.

[2] = target: T2, human MMP-9 (amino acids 107-446) (Homo sapiens, UniProt P14780); experiment: MMP dose response assay for determining IC50, MMP-9; assay type: biochemical; settings: for IC50: recombinant enzyme, fluorescent-quench substrate 100 nM, read-out: MMP-9; for inhibition at 10 µM: read-out: MMP-9 % inhibition at 10 μM
T2 construct: human MMP-9 (amino acids 107-446); made in house
Protocol: as §1, §2

T2 sequence (P14780 107-446): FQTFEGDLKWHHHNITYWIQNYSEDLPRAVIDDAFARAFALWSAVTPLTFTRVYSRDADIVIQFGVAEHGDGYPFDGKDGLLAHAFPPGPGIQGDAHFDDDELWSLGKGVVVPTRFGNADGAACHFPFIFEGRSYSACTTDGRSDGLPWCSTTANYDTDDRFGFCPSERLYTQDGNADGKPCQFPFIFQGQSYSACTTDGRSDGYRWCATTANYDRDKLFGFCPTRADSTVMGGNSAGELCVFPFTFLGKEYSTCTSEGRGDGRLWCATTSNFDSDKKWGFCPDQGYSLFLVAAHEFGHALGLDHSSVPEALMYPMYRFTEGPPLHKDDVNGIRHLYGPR

Row | Compound | IC50 [1] | IC50 [2] | inhibition at 10 µM [1] [%] | inhibition at 10 µM [2] [%]
1 | CC(C)N[C@@H](CN(c1ccc(Oc2ccc(C(F)(F)F)cn2)cc1)S(C)(=O)=O)C(=O)NO [Example 56, N-Hydroxy (2S)-2-(2-propyl)amino-3-{N-{4-[(5-trifluoromethylpyridin-2-yl)oxyl]phenyl},N-methanesulfonylamino}propionamide] | 396 nM | 144 nM | – | –
2 | CS(=O)(=O)N(C[C@H](O)C(=O)NO)c1ccc(Oc2ccc(C(F)(F)F)cc2)cc1 [Example 54, N-Hydroxy (2S)-2-hydroxy-3-{N-[4-(4-trifluoromethylphenoxy)phenyl],N-methanesulfonylamino}propionamide] | 175 nM and 102 nM | 17.2 nM and 10.7 nM | – | –
3 | CS(=O)(=O)N(C[C@H](Nc1cccc(F)c1)C(=O)NO)c1ccc(Oc2ccc(C(F)(F)F)cc2)cc1 [Example 59, N-Hydroxy (2S)-2-(3-fluorophenyl)amino-3-{N-[4-(4-trifluoromethylphenoxy)phenyl],N-methanesulfonylamino}propionamide] | 466 nM | 31.9 nM | – | –
4 | Cc1ccc(Oc2ccc(N(C[C@H](O)C(=O)NO)S(C)(=O)=O)cc2)cc1 [Example 8, N-Hydroxy (2S)-2-hydroxy-3-{N-[4-(4-methylphenoxy)phenyl],N-methanesulfonylamino}propionamide] | 88.5 nM and 67.8 nM and 98.2 nM and 65 nM and 51.9 nM and 71.5 nM | 10.5 nM and 11.1 nM and 10.1 nM and 3.37 nM and 4.69 nM and 7.57 nM | – | –
5 | CS(=O)(=O)N(C[C@H](O)C(=O)NO)c1ccc(Oc2ccc(C(F)(F)F)cn2)cc1 [Example 53, N-Hydroxy (2S)-2-hydroxy-3-{N-{4-[(5-trifluoromethylpyridin-2-yl)oxy]phenyl},N-methanesulfonylamino}propionamide] | – | 472 nM | – | –
6 | CS(=O)(=O)N(C[C@@H](C(=O)NO)N1CCOCC1)c1ccc(Oc2ccc(C(F)(F)F)cn2)cc1 [Example 57, N-Hydroxy (2S)-2-(morpholin-4-yl)-3-{N-{4-[(5-trifluoromethylpyridin-2-yl)oxy]phenyl},N-methanesulfonylamino}propionamide] | 406 nM | 227 nM | – | –
7 | CS(=O)(=O)N(C[C@H](Nc1cccc(F)c1)C(=O)NO)c1ccc(Oc2ccc(C(F)(F)F)cn2)cc1 [Example 55, N-Hydroxy (2S)-2-(3-fluorophenyl)amino-3-{N-{4-[(5-trifluoromethylpyridin-2-yl)oxy]phenyl},N-methanesulfonylamino}propionamide] | 1560 nM | 410 nM | – | –
8 | CS(=O)(=O)N(C[C@@H](C(=O)NO)N1CCC(O)CC1)c1ccc(Oc2ccc(Cl)cc2)cc1 [Example 88, N-Hydroxy (2S)-3-{N-[4-(4-chlorophenoxy)phenyl],N-methanesulfonylamino}-2-(4-hydroxypiperidin-1-yl)propionamide] | 3.13 nM | 0.9 nM | – | –
9 | CS(=O)(=O)N(C[C@@H](O)C(=O)NO)c1ccc(-c2ccccc2)cc1 [Example 9, N-Hydroxy (2R)-2-hydroxy-3-[N-(4-phenyl)phenyl,N-methanesulfonylamino]propionamide] | – | – | 83.6 | 78.7
10 | CC(C)CN(O)C(=O)[C@H](CN(c1ccc(Oc2ccc(C(F)(F)F)cc2)cc1)S(C)(=O)=O)N1CCOCC1 [Example 5, N-Hydroxy,N-(2-methylpropyl)(2S)-2-(morpholin-4-yl)-3-{N-[4-(4-trifluoromethylphenoxy)phenyl],N-methanesulfonylamino}propionamide] | 261 nM | 87.9 nM | – | –
11 | COc1cccc(N[C@@H](CN(c2ccc(Oc3ccc(C)cc3)cc2)S(C)(=O)=O)C(=O)NO)c1 [Example 51, N-Hydroxy (2S)-2-(3-methoxyphenyl)amino-3-{N-[4-(4-methylphenoxy)phenyl],N-methanesulfonylamino}propionamide] | 26.8 nM | 0.62 nM | – | –
12 | COc1ccc(N[C@@H](CN(c2ccc(Oc3ccc(C)cc3)cc2)S(C)(=O)=O)C(=O)NO)cc1 [Example 48, N-Hydroxy (2S)-2-(4-methoxyphenyl)amino-3-{N-[4-(4-methylphenoxy)phenyl],N-methanesulfonylamino}propionamide] | 18.5 nM | 0.69 nM | – | –
13 | Cc1ccc(Sc2ccc(N(C[C@H](O)C(=O)NO)S(C)(=O)=O)cc2)cc1 [Example 49, N-Hydroxy (2S)-2-hydroxy-3-{N-[4-(4-methylthiophenoxy)phenyl],N-methanesulfonylamino}propionamide] | 274 nM and 321 nM | 62.8 nM and 44.5 nM | – | –
14 | CS(=O)(=O)N(C[C@H](O)C(=O)NO)c1ccc(-c2ccccc2)cc1 [Example 10, N-Hydroxy (2S)-2-hydroxy-3-[N-(4-phenyl)phenyl,N-methanesulfonylamino]propionamide] | – | – | 87 | 79
15 | CC(C)N[C@@H](CN(c1ccc(Oc2ccc(C(F)(F)F)cc2)cc1)S(C)(=O)=O)C(=O)NO [Example 58, N-Hydroxy (2S)-2-(2-propyl)amino-3-{N-[4-(4-trifluoromethylphenoxy)phenyl],N-methanesulfonylamino}propionamide] | 9.16 nM | 2.37 nM | – | –

The remaining lines, values ahead:

Row | IC50 [1] | IC50 [2] | inhibition at 10 µM [1] [%] | inhibition at 10 µM [2] [%] | Compound
16 | 5.52 nM | 2 nM | – | – | CS(=O)(=O)N(C[C@@H](C(=O)NO)N1CCOCC1)c1ccc(Oc2ccc(Cl)cc2)cc1 [Example 89, N-Hydroxy (2S)-2-(morpholin-4-yl)-3-{N-[4-(4-chlorophenoxy)phenyl],N-methanesulfonylamino}propionamide]
17 | 6.5 nM | 2.39 nM | – | – | CN1CCN([C@@H](CN(c2ccc(Oc3ccc(Cl)cc3)cc2)S(C)(=O)=O)C(=O)NO)CC1 [Example 92, N-Hydroxy (2S)-3-{N-[4-(4-chlorophenoxy)phenyl],N-methanesulfonylamino}-2-(4-methylpiperazin-1-yl)propionamide]
18 | 106 nM | 113 nM | – | – | CC(C)CC#Cc1ccc(N(C[C@@H](C(=O)NO)N2CCOCC2)S(C)(=O)=O)cc1 [Example 94, N-Hydroxy (2S)-3-{N-[4-(4-methylpentyn-1-yl)phenyl],N-methanesulfonylamino}-2-(morpholin-4-yl)propionamide]
19 | 447 nM | 159 nM | – | – | CN(O)C(=O)[C@H](CN(c1ccc(Oc2ccc(C(F)(F)F)cc2)cc1)S(C)(=O)=O)N1CCOCC1 [Example 98, N-Hydroxy,N-methyl (2S)-2-(morpholin-4-yl)-3-{N-[4-(4-trifluoromethylphenoxy)phenyl],N-methanesulfonylamino}propionamide]
20 | 2.83 nM | 0.68 nM | – | – | Cc1ccc(Oc2ccc(N(C[C@@H](C(=O)NO)N3C[C@@H](C)O[C@@H](C)C3)S(C)(=O)=O)cc2)cc1 [Example 100, N-Hydroxy (2S)-2-(cis-2,6-dimethylmorpholin-4-yl)-3-{N-[4-(4-methylphenoxy)phenyl],N-methanesulfonylamino}propionamide]
21 | 50.3 nM | 8.18 nM | – | – | CC(C)O[C@@H](CN(c1ccc(Oc2ccc(C(F)(F)F)cc2)cc1)S(C)(=O)=O)C(=O)NO [Example 99, N-Hydroxy (2S)-2-(2-propoxy)-3-{N-[4-(4-trifluoromethylphenoxy)phenyl],N-methanesulfonylamino}propionamide]
22 | 2.54 nM and 3.69 nM and 1.28 nM | 0.57 nM and 0.64 nM and 0.17 nM | – | – | C[C@@H]1CN([C@@H](CN(c2ccc(Oc3ccc(Cl)cc3)cc2)S(C)(=O)=O)C(=O)NO)C[C@H](C)O1 [Example 95, N-Hydroxy (2S)-3-{N-[4-(4-chlorophenoxy)phenyl],N-methanesulfonylamino}-2-(cis-2,6-dimethylmorpholin-4-yl)propionamide]
23 | 312 nM and 254 nM | 64.4 nM and 39.2 nM | – | – | CS(=O)(=O)N(C[C@H](O)C(=O)NO)c1ccc(Sc2ccc(F)cc2)cc1 [Example 90, N-Hydroxy (2S)-2-hydroxy-3-{N-[4-(4-fluorothiophenoxy)phenyl],N-methanesulfonylamino}propionamide]
24 | 23 nM and 24.8 nM | 6.53 nM and 6.01 nM | – | – | C=CCN(O)C(=O)[C@H](CN(c1ccc(Oc2ccc(C)cc2)cc1)S(C)(=O)=O)N1C[C@@H](C)O[C@@H](C)C1 [Example 102, N-(3-Allyl),N-hydroxy (2S)-2-(cis-2,6-dimethylmorpholin-4-yl)-3-{N-[4-(4-methylphenoxy)phenyl],N-methanesulfonylamino}propionamide]
25 | 7.55 nM | 2.34 nM | – | – | CS(=O)(=O)N(C[C@@H](C(=O)NO)N1CCCCC1)c1ccc(Oc2ccc(C(F)(F)F)cc2)cc1 [Example 96, N-Hydroxy (2S)-2-(piperidin-1-yl)-3-{N-[4-(4-trifluoromethylphenoxy)phenyl],N-methanesulfonylamino}propionamide]
